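Where inhibition never reached the appropriate level, the endpoint shown equals the highest concentration tested. Otherwise, values were interpolated linearly from a five-concentration, 48-hour dose response in 96-well plates. Abbreviation: GI50, concentration required for 50% inhibition of growth. TGI marks complete inhibition of growth.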
Key:
Assay in all cases: DTP human tumour cell line panel, 48 h
CAKI-1 renal = system: CAKI-1 renal
COLO 205 colon = system: COLO 205 colon
HCC-2998 colon = system: HCC-2998 colon
IGROV1 ovarian = system: IGROV1 ovarian
RXF 393 renal = system: RXF 393 renal
SK-MEL-2 melanoma = system: SK-MEL-2 melanoma
UACC-62 melanoma = system: UACC-62 melanoma
MDA-MB-231 breast = system: MDA-MB-231 breast
MDA-MB-435 = system: MDA-MB-435
T-47D breast = system: T-47D breast

SMILES	TGI (CAKI-1 renal) [µM]	TGI (COLO 205 colon) [µM]	TGI (HCC-2998 colon) [µM]	TGI (IGROV1 ovarian) [µM]	TGI (RXF 393 renal) [µM]	TGI (SK-MEL-2 melanoma) [µM]	TGI (UACC-62 melanoma) [µM]	TGI (MDA-MB-231 breast) [µM]	TGI (MDA-MB-435) [µM]	TGI (T-47D breast) [µM]	GI50 (CAKI-1 renal) [µM]	GI50 (COLO 205 colon) [µM]	GI50 (HCC-2998 colon) [µM]	GI50 (MDA-MB-231 breast) [µM]	GI50 (MDA-MB-435) [µM]	GI50 (SK-MEL-2 melanoma) [µM]	GI50 (T-47D breast) [µM]	GI50 (UACC-62 melanoma) [µM]	GI50 (IGROV1 ovarian) [µM]	GI50 (RXF 393 renal) [µM]
Cn1nc(-c2ccccc2)c2c(/C=C/c3ccccc3)onc2c1=O	> 100	> 100	> 100	> 100	> 100	> 100	> 100	–	–	–	–	–	–	–	–	–	–	–	–	–
Cc1ccc(S(=O)(=O)NC(CN)C(=O)O)cc1 (configuration not stated)	> 100	> 100	–	> 100	> 100	> 100	> 100	> 100	> 100	> 100	–	–	–	–	–	–	–	–	–	–
O=C(COc1cccc(/C=C2\CSc3ccccc3C2=O)c1)Nc1nccs1	6.33	18.9	3.13	–	–	3.1	3.12	21.4	4.85	23.9	1.72	5.61	1.7	5.46	2.02	1.22	5.33	1.48	–	–
CC1(c2ccc(Cl)cc2)C2C(=O)NC(=O)C1C(=O)NC2=O (configuration not stated)	> 100	> 100	> 100	> 100	> 100	> 100	> 100	–	–	–	–	–	–	–	–	–	–	–	–	–
CN(c1ccccc1)c1c(Cl)c(=O)oc2c1ccc1occc12	> 100	–	> 100	–	> 100	> 100	> 100	–	–	–	–	–	–	–	–	–	–	–	–	–
CCOC(=O)C1(C)CCCCC(=O)N1 (configuration not stated)	> 100	> 100	> 100	> 100	> 100	–	> 100	–	–	–	–	–	–	–	–	–	–	–	–	–
CC(=O)OC1COC(n2c(=S)n(-c3ccccc3)c(=O)c3ccccc32)C(OC(C)=O)C1OC(C)=O (configuration not stated)	> 100	> 100	> 100	> 100	> 100	> 100	> 100	–	–	–	–	–	–	–	–	–	–	–	–	–
c1ccc2c(c1)cc1n2CC2CN=NC12 (configuration not stated)	> 100	–	> 100	> 100	> 100	> 100	> 100	–	–	–	–	–	–	–	–	–	–	–	–	–
CC(=O)NNc1nc(C)c(C(=O)NNC(=O)C(=O)Nc2ccc(Cl)cc2Cl)s1	75.5	> 100	> 100	> 100	–	> 100	57.4	–	–	–	–	–	–	–	–	–	–	–	–	–
COC(=O)C=Cc1ccc2nncnc2c1 (mixture of isomers)	> 100	> 100	–	> 100	–	> 100	32.2	> 100	35.5	> 100	–	–	–	–	–	–	–	–	–	–
CC(SC(=O)Nc1ccc(N=Nc2ccccc2)cc1)C(=O)O (configuration not stated)	> 100	> 100	> 100	> 100	> 100	> 100	> 100	–	–	–	–	–	–	–	–	–	–	–	–	–
CC[n+]1c(/C=C/C=C2\N(C)c3ccccc3C2(C)C)sc2ccccc21	–	9.13	7.81	10.7	10.3	11	8.32	10.3	7.66	11.8	–	4.47	3.86	4.5	3.98	5.23	4.65	4.03	4.68	4.33

From PubChem BioAssay (NCI)
